This is an account of results in patent publication US20240182470A1, “KRASG12C MUTANT PROTEIN INHIBITOR, PREARATION AND USE THEREOF” (YA THERAPEUTICS INC, priority 2021, published 2024).

The test system of this assay is H358 (KRAS G12C mutant) cells. The experiment in a line: Tumor cell proliferation inhibition assay (Cell Titer-Glo, 72 h). The class given is cell-based. The conditions noted are these: inhibition of tumor cell proliferation, 72 hours with compound, 10% fetal bovine serum; read-out: NCI-H538 IC50(nm). How it is done: The H358 (KRAS G^12C mutant) cells were digested, centrifuged and resuspended, and the cell density was measured with a Scepter automatic cell counter. The cells were diluted to a solution containing 44,000 cells per milliliter, and the density-adjusted cell solution was 90 microliters per well. into a 96-well culture plate. The 96-well plate was placed in a 37° C., 5% CO2 incubator. After the cells were cultured for 24 hours, different concentrations of the compounds to be tested were added. The cells were incubated with the compounds for 72 hours in the presence of 10% fetal bovine serum. Glo Luminescent Cell Viability Assay Kit (see manufacturer's instructions for details) was used to measure ATP content to assess cell growth inhibition. Briefly, 30 μl of Cell Titer-Glo reagent was added to each well, and the plate was shaken for 10 minutes to induce cell lysis. Fluoroskan
Ascent FL (Thermo) assay was used to record the fluorescent signal, and the maximum signal value was obtained from cells treated with dimethyl sulfoxide for 72 hours. The minimum signal value was obtained from the medium alone (the number of cells was zero), and the % inhibition rate=(the maximum signal value compound signal value)/(the maximum signal value—the minimum signal value×100%, and the data were processed using Graphpadprism 5 software. By sigmoid Dose-response curve fitting to calculate the IC50 value. “A” means IC50≤50 nM; “B” means 50<IC50≤500 nM; “C” means 500<IC50≤2000 nM; “D” means 2000 nM<IC50
A general note: In ATP-based viability assays light output follows the ATP content of the culture.
A word on the IC50: it is the concentration needed to halve the response being measured. Regarding `C=CC(=O)N1CCN(c2nc(OC[C@@]34CCCN3C[C@H](F)C4)nc3nc(-c4cc(O)cc5cccc(F)c45)c(F)cc23)[C@H](C)C1` [Compound 36, 7-(3-Hydroxy-8-fluoronaphthyl)-6-fluoro-4-(((R)-4-acryloyl-2-methylpiperazine)-1-yl)-2-(((2R,7aS)-2-fluorotetrahydro-1H-pyrincyclo-7a(5H)-yl)methoxy)pyridine[2,3-d]lopyrimidine], the IC50 is at most 50 nM.

On to “6-Chloro-7-(3-hydroxy-8-fluoronaphthyl)-8-fluoro-4-(((S)-4-acryloyl-3-carbonitrileethylpiperazine)-1-yl)-2-(((S)-2,2-difluorotetrahydro-1H-pyrinyl-7a(5H)-yl)methoxy)quinazoline [Compound 76]”, for which the IC50 is at most 50 nM.

“6-Chloro-7-(3-hydroxy-8-fluoronaphthyl)-8-fluoro-4-(((S)-4-(2-fluoroacryloyl)-3-carbonitrileethylpiperazine)-1-yl)-2-(((S)-2,2-difluorotetrahydro-1H-pyrincycline-7a(5H)-yl)methoxy)quinazoline [Compound 77]”: the IC50 was at most 50 nM.

For the compound “6-Chloro-7-(8-fluoronaphthyl)-8-fluoro-4-(((S)-4-acryloyl-3-carbonitrileethylpiperazine)-2-(((S)-2,2- difluorotetrahydro-1H-pyrincyclo-7a(5H)-yl)methoxy)quinazoline [Compound 75]”, the IC50 is at most 50 nM.

In the case of `C=CC(=O)N1CCN(c2nc(OC[C@@H]3CCCN3C)nc3nc(-c4c(O)cccc4F)c(F)cc23)[C@@H](C)C1` [Compound 12, 7-(2-Fluoro-6-hydroxyphenyl)-6-fluoro-4-(((S)-4-(2-acryloyl)-2-methylpiperazine)-1-yl)-2-(((S)-1-(methyl-d3)pyrrolidin-2-yl)methoxy)pyridine[2,3-d]lopyrimidine], the IC50 lay within 500 to 2000 nM.

As for `C=C(F)C(=O)N1CCN(c2nc(OC[C@@]34CCCN3CC(F)(F)C4)nc3nc(-c4cc(O)cc5cccc(F)c45)c(F)cc23)C[C@@H]1CC#N` [Compound 84, 7-(3-Hydroxy-8-fluoronaphthyl)-6-fluoro-4-(((S)-4-(2-fluoroacryloyl)-3-carbonitrileethylpiperazine)-1-yl)-2-(((S)-2,2-difluorotetrahydro-1H-pyrinyl-7a(5H)-yl)methoxy)pyridine[2,3-d]lopyrimidine], the IC50 was at most 50 nM.

For the compound `C=CC(=O)N1CCN(c2nc(OCC34CCCN3CCC4)nc3c(F)c(-c4cc(O)cc5cccc(F)c45)ccc23)C[C@@H]1CC#N` [Compound 55], the IC50 was at most 50 nM.

For “7-(2-Fluoro-6-hydroxyphenyl)-6-fluoro-4-(((S)-4-(2-fluoroacryloyl)-3-carbonitrileethylpiperazine)-1-yl)-2-(((S)-1-(methyl-d3)pyrrolidin-2-yl)methoxy)pyridine[2,3-d]lopyrimidine [Compound 11]”, the IC50 was over 2000 nM.

For the compound `C=C(F)C(=O)N1C2CCC1CN(c1nc(OC[C@@]34CCCN3C[C@H](F)C4)nc3c(F)c(-c4cc(O)cc5cccc(F)c45)c(Cl)cc13)C2` [Compound 42, 6-Chloro-74(3-hydroxy-8-fluoronaphthyl)-8-fluoro-4-(8-(2-fluoroacryloyl)-3,8-diazabicyclo[3.2.1]octane-3-yl)-2-(((2R,7aS)-2-fluorotetrahydro-1H-pyrincycline-7a(5H)-yl)methoxy)quinazoline], the IC50 is at most 50 nM.

`C=C(F)C(=O)N1CCN(c2cc(OC[C@@H]3CCCN3C)nc3nc(-c4cccc5cccc(F)c45)c(F)cc23)[C@H](C)C1` [Compound 8]: the IC50 was at most 50 nM.

Regarding `C=C(F)C(=O)N1CCN(c2nc(OC[C@@]34CCCN3CC(F)(F)C4)nc3c(F)c(-c4cccc5cccc(C)c45)ccc23)C[C@@H]1CC#N` [Compound 68, 7-(8-Methylnaphthyl)-8-fluoro-4-(((S)-4-(2-fluoroacryloyl)-3-carbonitrileethylpiperazine)-1-yl)-2-(((S)-2,2-difluorotetrahydro-1H-pyrinyl-7a(5H)-yl)methoxy)quinazoline], the IC50 is at most 50 nM.

With `C=CC(=O)N1CCN(c2nc(OC[C@@]34CCCN3C[C@H](F)C4)nc3c(F)c(-c4cc(O)cc5cccc(F)c45)c(Cl)cc23)[C@H](C)C1` [Compound 46, 6-Chloro-7-(3-hydroxy-8-fluoronaphthyl)-8-fluoro-4-(((R)-4-acryloyl-2-methylpiperazine)-1-yl)-2-(((2R,7aS)-2-fluorotetrahydro-1H-pyrinyl-7a(5H)-yl)methoxy)quinazoline], the IC50 was at most 50 nM.

Regarding “7-(8-Fluoronaphthyl)-6-fluoro-4-(8-(2-fluoroacryloyl)-3,8-diazabicyclo[3.2.1]octan-3-yl)-2-(((2R,7aS)-2-fluorotetrahydro-1H-pyrinyl-7a(5H)-yl)methoxy)pyridine[2,3-d]lopyrimidine [Compound 31]”, the IC50 is at most 50 nM.

On to “6-Chloro-7-(8-methylnaphthyl)-8-fluoro-4-(((R)-4-acryloyl-2-methylpiperazine)-1-yl)-2-((((S))-2,2-Difluorotetrahydro-1H-pyrincycline-7a(5H)-yl)methoxy)quinazoline [Compound 74]”, for which the IC50 is at most 50 nM.

For “7-(8-Methylnaphthyl)-8-fluoro-4-(((R)-4-acryloyl-2-methylpiperazine)-1-yl)-2-(((2R,7aS)tetrakishydrogen-1H-pyrinyl-7a(5H)-yl)methoxy)quinazoline [Compound 61]”, the IC50 is at most 50 nM.

Turning to “7-(8-Fluoronaphthyl)-8-fluoro-4-(((R)-4-acryloyl-2-methylpiperazine)-1-yl)-2-(((2R,7aS)-2-fluorotetrahydro-1H-pyrincyclo-7a(5H)-yl)methoxy)quinazoline [Compound 69]”, the IC50 was at most 50 nM.

Consider `C=CC(=O)N1CCN(c2nc(OC[C@@]34CCCN3C[C@H](F)C4)nc3c(F)c(-c4cc(O)cc5cccc(F)c45)ccc23)[C@H](C)C1` [Compound 48, 7-(3-Hydroxy-8-fluoronaphthyl)-8-fluoro-4-(((R)-4-acryloyl-2-methylpiperazine)-1-yl)-2-(((2R, 7aS)-2-fluorotetrahydro-1H-pyrincycline-7a(5H)-yl)methoxy)quinazoline], for which the IC50 was at most 50 nM.

Turning to “7-(8-Methylnaphthyl)-6-fluoro-4-(((S)-4-(2-fluoroacryloyl)-3-carbonitrileethylpiperazine)-1-yl)-2-(((2R,7aS)-2-fluorotetrahydro-1H-pyrinyl-7a(5H)-yl)methoxy)pyridine[2,3-d]lopyrimidine [Compound 82]”, the IC50 was at most 50 nM.

On to “7-(8-Methylnaphthalene)-4-(((R)-4-Acryloyl-2-methylpiperazine)-1-yl)-24(1-(N,N-dimethylamineyl)methylcyclopropan-1-yl)methoxy)pyridine[2,3-d]lopyrimidine [Compound 22]”, for which the IC50 is at most 50 nM.

In the case of `C=C(F)C(=O)N1CCN(c2nc(OC[C@@]34CCCN3C[C@H](F)C4)nc3nc(-c4cccc5cccc(F)c45)c(F)cc23)C[C@@H]1CC#N` [Compound 29], the half-maximal inhibitory concentration (IC50) is at most 50 nM.

For the compound `C=C(F)C(=O)N1CCN(c2nc(OC[C@@]34CCCN3C[C@H](F)C4)nc3c(F)c(-c4cc(O)cc5cccc(F)c45)c(Cl)cc23)[C@H](C)C1` [Compound 44, 6-Chloro-74(3-hydroxy-8-fluoronaphthyl)-8-fluoro-4-(((R)-4-(2-fluoroacryloyl)-2-methylpiperazine)-1-yl)-2-(((2R,7aS)-2-fluorotetrahydro-1H-pyrincycline-7a(5H)-yl)methoxy)quinazoline], the IC50 is at most 50 nM.
